Converted amounts (≈) assume the structure as drawn.
Tests used:
[1] = Thermal decomposition temperature by thermogravimetry and differential thermal analysis; type: physicochemical
Experimental: (§1) For the absorption characteristic of such compounds, absorption spectra were measured by use of a near infrared photospectrometer to confirm that they could be utilized as materials for the optical switch operating at a wavelength of 1.3 μm. Further, for the thermal stability, the thermal decomposition temperature was measured by thermogravimetry and differential thermal analysis to confirm that they were thermally stable materials for the optical switch. Further, their solubility in organic solvents such as chloroform and acetone was confirmed.

Solubility in chloroform = type: physicochemical; settings: organic solvent or mixture
Experimental: as §1

SMILES	decomposition temperature (thermal stability) [1] [°C]	solubility (Solubility in chloroform) [mg/mL]
CC(C)CN(CC(C)C)c1cc(O)c2c(c1)OC(=O)/C2=C(/[O-])C1=C2C(O)=CC(=[N+](CC(C)C)CC(C)C)C=C2OC1=O [Compound (1)]	202.7	54 (≈ 93.3 mM)
CCN(CC)c1cc(O)c2c(c1)OC(=O)/C2=C(/[O-])C1=C2C(O)=CC(=[N+](CC)CC)C=C2OC1=O [Compound (2)]	≥ 200	3 (≈ 6.43 mM)
